Reference: US8263385B2, “S-triazine-herbicide-degrading bacteria, product for the bioremediation and method of bioremediation” (priority 2007, dated 2012)

Test system: Pseudomonas sp. strain MHP41
Experiment: Antibiotic sensitivity of strain MHP41
Assay type: cell-based

| SMILES | sensitivity or resistance of the strain to the antibiotic |
| --- | --- |
| CC1(C)S[C@@H]2[C@H](NC(=O)[C@H](N)c3ccccc3)C(=O)N2[C@H]1C(=O)O [ampicillin] | natural resistance |
| CC1(C)S[C@@H]2[C@H](NC(=O)C(C(=O)O)c3ccccc3)C(=O)N2[C@H]1C(=O)O (stereo partly drawn) [carbamicillin] | sensitive |
| [H]/N=C(/N)N[C@H]1[C@H](O)[C@@H](O)[C@H](O[C@@H]2O[C@@H](C)[C@](O)(C=O)[C@H]2O[C@@H]2O[C@@H](CO)[C@H](O)[C@@H](O)[C@@H]2NC)[C@@H](N/C(N)=N\[H])[C@@H]1O [streptomycin] | sensitive |
